US20060009431A1, “Nitrosated and nitrosylated compounds, compositions and methods use” (NitroMed, Inc., priority 2003, published 2006)

tested on: human coronary artery smooth muscle cells (CASMC); test: Vascular smooth muscle cell (SMC) antiproliferation assay; format: cell-based; conditions: Homo sapiens, viable cell count (Trypan Blue exclusion) ~68 hours after compound addition, n=4, read-out: IC 50 for the inhibition of proliferation of vascular smooth muscle cells, Nitrosated and/or Nitrosylated Compound
Method: Suppression of Proliferation of Human Coronary Artery Smooth Muscle Cells (CASMC)
Vascular Smooth Muscle Cell (SMC) Antiproliferation Assay
The cells used in this assay were human coronary artery smooth muscle cells (CASMC) supplied by Clonetics Corp. (San Diego, Calif.). They were maintained in SmGM-2 growth medium (Clonetics Corp.), which consisted of modified MCDB 131 medium supplemented with 5% (v/v) fetal bovine serum (FBS), 0.5 ng/mL human recombinant epidermal growth factor (EGF), 2 ng/mL human recombinant fibroblast growth factor (FGF), 5 μg/mL bovine insulin, 50 μg/mL gentamicin sulfate, and 50 ng/mL amphotericin B under humidified 95% air-5% CO2 at 37° C. Cells were used for experiments up to about 17 cumulative population doublings (i.e., passage 9); at this age they still stained positive for smooth muscle actin, a protein marker for smooth muscle cells.
For the SMC antiproliferation assay, the cells were seeded at 3×10^4 viable cells in 2 mL of SmGM-2 medium per well of a Corning 24 tissue culture well plate (Corning, N.Y.). Stock solutions of the test compounds were prepared just prior to addition to the cells by dissolving in DMSO at a concentration of 1000 times the highest concentration to be assayed. This stock solution was diluted, as required, with DMSO to lower concentrations. On the same day the cells were seeded, but after they had attached and spread out (about 3 hours), each test compound in varying concentrations (2 μL of the diluted stock solutions) was added to four replicate wells (n=4) for each concentration. Control cultures received 2 μL of DMSO per well (n=4). On the following morning, the cultures were examined microscopically and their condition recorded. On the third day after test compound addition (˜68 hours), the cultures were examined microscopically again and the viable cells counted with an hemacytometer following trypsinization with 0.25% trypsin-1 mM EDTA. Trypan Blue dye exclusion was used to discriminate between viable and dead cells. The results were usually presented as % of the control viable cell count (mean±SEM) and were used to determine the IC50 for the inhibition of proliferation of vascular smooth muscle cells.

SMILES | IC50
C[C@]12CC[C@@H]3c4ccc(OC(=O)c5ccccc5)cc4CC[C@H]3[C@@H]1CC[C@@H]2OC(=O)CCC(=O)O[C@H]1CO[C@H]2[C@@H]1OC[C@H]2O[N+](=O)[O-] [Example 15, (1S,11S,14S,15S,10R)-15-Methyl-5-phenylcarbonyloxytetracyclo(8.7.0.0<2,7>0.0<11,15>)heptadeca-2,4,6-trien-14-yl(1S,2S,5S,6R)-6-(nitrooxy)-4,8-dioxabicyclo(3.3.0)oct-2-yl butane-1,4-dioate] | > 80 µM
C[C@]12CC[C@@H]3c4ccc(OC(=O)CC5(SN=O)C6CC7CC(C6)CC5C7)cc4CC[C@H]3[C@@H]1CC[C@@H]2O (stereo partly drawn) [Example 18, (1S,11S,14S,15S,10R)-14-hydroxy-15-methyltetracyclo(8.7.0.0<2,7>0.0<11,15>)heptadeca-2,4,6-trien-5-yl 2-(2-(nitrosothio)adamantan-2-yl)acetate] | 9 µM
C[C@]12CC[C@@H]3c4ccc(OC(=O)CCC(=O)OCCC5(SN=O)C6CC7CC(C6)CC5C7)cc4CC[C@H]3[C@@H]1CC[C@@H]2O (stereo partly drawn) [Example 25, (1S,11S,14S,15S,10R)-14-Hydroxy-15-methyltetracyclo(8.7.0.0<2,7>0.0<11,15>)heptadeca-2,4,6-trien-5-yl 2-(2-(nitrosothio)adamantan-2-yl)ethyl butane-1,4-dioate] | 4 µM
CC1(C)CCC(CCOC(=O)CCC(=O)Oc2ccc3c(c2)CC[C@@H]2[C@@H]3CC[C@]3(C)[C@@H](O)CC[C@@H]23)(SN=O)CC1 [Example 28i, (1S,11S,14S,15S,10R)-14-Hydroxy-15-methyltetracyclo(8.7.0.0<2,7>0.0<11,15>)heptadeca-2,4,6-trien-5-yl 2-(4,4-dimethyl-1-(nitrosothio)cyclohexyl)ethyl butane-1,4-dioate] | 13 µM
C[C@]12CC[C@@H]3c4ccc(OC(=O)CCC(=O)O[C@H]5CO[C@H]6[C@@H]5OC[C@H]6O[N+](=O)[O-])cc4CC[C@H]3[C@@H]1CC[C@@H]2O [Example 32b, (1S,11S,14S,15S,10R)-14-Hydroxy-15-methyltetracyclo(8.7.0.0<2,7>0.0<11,15>)heptadeca-2,4,6-trien-5-yl(1S,2S,5S,6R)-6-(nitrooxy)-4,8-dioxabicyclo(3.3.0)oct-2-yl butane-1,4-dioate] | 8 µM
C[C@]12CC[C@@H]3c4ccc(OCC(=O)OCCC5(SN=O)C6CC7CC(C6)CC5C7)cc4CC[C@H]3[C@@H]1CC[C@@H]2O (stereo partly drawn) [Example 36b, 2-(2-(Nitrosothio)adamantan-2-yl)ethyl 2-((1S,11S,14S,15S,10R)-14-hydroxy-15-methyltetracyclo(8.7.0.0<2,7>0.0<11,15>)heptadeca-2,4,6-trien-5-yloxy)acetate] | 5 µM
C[C@]12CC[C@@H]3c4ccc(O)cc4/C(=N/OCC(=O)OCCC4(SN=O)C5CC6CC(C5)CC4C6)C[C@H]3[C@@H]1CC[C@@H]2O (stereo partly drawn) [Example 37, 2-(2-(Nitrosothio)adamantan-2-yl)ethyl 2-(((1S,11S,14S,15S,10R)-5,14-dihydroxy-15-methyltetracyclo(8.7.0.0<2,7>0.0<11,15>)heptadeca-2,4,6-trien-8-ylidene)azamethoxy)acetate] | 1.4 to 2 µM

same assay, conditions: viable cell count (Trypan Blue exclusion) ~68 hours after compound addition, n=4

SMILES | IC 50 for the inhibition of proliferation of vascular smooth muscle cells, Nitrosated and/or Nitrosylated Compound | IC 50 for the inhibition of proliferation of vascular smooth muscle cells, Non-nitrosated and/or Non-nitrosylated Compound
CN(CCO[N+](=O)[O-])C(=O)CO/N=C1\C[C@@H]2[C@H](CC[C@]3(C)[C@@H](O)CC[C@@H]23)c2ccc(O)cc21 [35 b] | Non-inhibitory | 
C[C@]12CC[C@@H]3c4ccc(OC(=O)CC5(S)C6CC7CC(C6)CC5C7)cc4CC[C@H]3[C@@H]1CC[C@@H]2OC(=O)C(F)(F)F (stereo partly drawn) [Example 17b, (1S,11S,14S,15S,10R)-15-methyl-5-(2-(2-sulfanyladamantan-2-yl)acetyloxy)tetracyclo(8.7.0.0<2,7>0.0<11,15>)heptadeca-2,4,6-trien-14-yl 2,2,2-trifluoroacetate] |  | cytostatic
C[C@]12CC[C@@H]3c4ccc(OC(=O)CC5(SN=O)C6CC7CC(C6)CC5C7)cc4CC[C@H]3[C@@H]1CC[C@@H]2OC(=O)C(F)(F)F (stereo partly drawn) [Example 17c, (1S,11S,14S,15S,10R)-15-Methyl-5-(2-(2-(nitrosothio)adamantan-2-yl)acetyloxy)tetracyclo(8.7.0.0<2,7>0.0<11,15>)heptadeca-2,4,6-trien-14-yl 2,2,2-trifluoroacetate] | Non-inhibitory | 

same assay, conditions: viable cell count (Trypan Blue exclusion) ~68 hours after compound addition, n=4, read-out: IC 50 for the inhibition of proliferation of vascular smooth muscle cells, Non-nitrosated and/or Non-nitrosylated Compound

SMILES | IC50
CC1(C)CCC(S)(CCOC(=O)CCC(=O)Oc2ccc3c(c2)CC[C@@H]2[C@@H]3CC[C@]3(C)[C@@H](O)CC[C@@H]23)CC1 [Example 28h, (1S,11S,14S,15S,10R)-14-hydroxy-15-methyltetracyclo(8.7.0.0<2,7>0.0<11,15>)heptadeca-2,4,6-trien-5-yl 2-(4,4-dimethyl-1-sulfanylcyclohexyl)ethyl butane-1,4-dioate] | 14 µM
C[C@]12CC[C@@H]3c4ccc(OC(=O)CCC(=O)OCCC5(S)C6CC7CC(C6)CC5C7)cc4CC[C@H]3[C@@H]1CC[C@@H]2O (stereo partly drawn) [Example 30, (1S,11S,14S,15S,10R)-14-Hydroxy-15-methyltetracyclo(8.7.0.0<2,7>0.0<11,15>)heptadeca-2,4,6-trien-5-yl 2-(2-sulfanyladamantan-2-yl)ethyl butane-1,4-dioate] | 4 µM
C[C@]12CC[C@@H]3c4ccc(O)cc4C(=NOCC(=O)O)C[C@H]3[C@@H]1CC[C@@H]2O [Example 35a, 2-(((1S,11S,14S,15S,10R)-5,14-dihydroxy-15-methyltetracyclo(8.7.0.0<2,7>0.0<11-15>)heptadeca-2,4,6-trien-8-ylidene)azamethoxy)acetic acid, reference compound] | > 80 µM
C[C@]12CC[C@@H]3c4ccc(OC(=O)CC5(S)C6CC7CC(C6)CC5C7)cc4CC[C@H]3[C@@H]1CC[C@@H]2O (stereo partly drawn) [Example 49, (1S,11S,14S,15S,10R)-14-hydroxy-15-methyltetracyclo(8.7.0.0<2,7>0.0<11,15>)heptadeca-2,4,6-trien-5-yl 2-(2-sulfanyladamantan-2-yl)acetate] | 4 µM

tested on: not given; test: not given; conditions: not given

SMILES | melting point
C[C@]12CC[C@@H]3c4ccc(OC(=O)c5ccccc5)cc4CC[C@H]3[C@@H]1CC[C@@H]2OC(=O)CCC(=O)OCCC1(S)C2CC3CC(C2)CC1C3 (some centres unmarked) | 140 to 143 °C
C[C@]12CC[C@@H]3c4ccc(OC(=O)COCC(=O)O[C@H]5CO[C@H]6[C@@H]5OC[C@H]6O[N+](=O)[O-])cc4CC[C@H]3[C@@H]1CC[C@@H]2O | 146 to 149 °C
C[C@]12CC[C@@H]3c4ccc(OC(=O)CCCC(=O)NCC5(SN=O)CCCCC5)cc4CC[C@H]3[C@@H]1CC[C@@H]2O | 50 to 52 °C
C[C@]12CC[C@@H]3c4ccc(O)cc4/C(=N/OCC(=O)N4CCC(CO[N+](=O)[O-])CC4)C[C@H]3[C@@H]1CC[C@@H]2O | 143 to 145 °C
C[C@]12CC[C@@H]3c4ccc(O)cc4/C(=N/OCC(=O)NCCO[N+](=O)[O-])C[C@H]3[C@@H]1CC[C@@H]2O | 140 °C (dec.)
C[C@]12CC[C@@H]3c4ccc(O)cc4/C(=N/OCC(=O)N4CCC(CCO[N+](=O)[O-])CC4)C[C@H]3[C@@H]1CC[C@@H]2O | 102 to 105 °C
CC(C)(SN=O)C1COC(=O)N1CCOC(=O)CO/N=C1\C[C@@H]2[C@H](CC[C@]3(C)[C@@H](O)CC[C@@H]23)c2ccc(O)cc21 (some centres unmarked) | 75 to 77 °C
CC(C)(SN=O)C1COC(=O)N1CCOC(=O)COc1ccc2c(c1)CC[C@@H]1[C@@H]2CC[C@]2(C)[C@@H](O)CC[C@@H]12 (some centres unmarked) | 40 °C
CN(CCO[N+](=O)[O-])C(=O)CO/N=C1\C[C@@H]2[C@H](CC[C@]3(C)[C@@H](O)CC[C@@H]23)c2ccc(O)cc21 | 125 to 127 °C (dec.)
COc1ccc(/C=C/C(=O)Nc2ccccc2C(=O)OCC(=O)NCC(C)(C)SN=O)cc1OC [Example 1, (N-(2-Methyl-2-(nitrosothio)propyl)carbamoyl)methyl 2-((2E)-3-(3,4-dimethoxyphenyl)prop-2-enoylamino)benzoate] | 135 to 137 °C
C[C@]12CC[C@@H]3c4ccc(OC(=O)CCC(=O)OCCC5(S)C6CC7CC(C6)CC5C7)cc4CC[C@H]3[C@@H]1CC[C@@H]2O (stereo partly drawn) [Example 30, (1S,11S,14S,15S,10R)-14-Hydroxy-15-methyltetracyclo(8.7.0.0<2,7>0.0<11,15>)heptadeca-2,4,6-trien-5-yl 2-(2-sulfanyladamantan-2-yl)ethyl butane-1,4-dioate] | 133 to 136 °C
C[C@]12CC[C@@H]3c4ccc(OC(=O)CCC(=O)O[C@H]5CO[C@H]6[C@@H]5OC[C@H]6O[N+](=O)[O-])cc4CC[C@H]3[C@@H]1CC[C@@H]2O [Example 32b, (1S,11S,14S,15S,10R)-14-Hydroxy-15-methyltetracyclo(8.7.0.0<2,7>0.0<11,15>)heptadeca-2,4,6-trien-5-yl(1S,2S,5S,6R)-6-(nitrooxy)-4,8-dioxabicyclo(3.3.0)oct-2-yl butane-1,4-dioate] | 163 to 165 °C
C[C@]12CC[C@@H]3c4ccc(OCC(=O)OCCC5(SN=O)C6CC7CC(C6)CC5C7)cc4CC[C@H]3[C@@H]1CC[C@@H]2O (stereo partly drawn) [Example 36b, 2-(2-(Nitrosothio)adamantan-2-yl)ethyl 2-((1S,11S,14S,15S,10R)-14-hydroxy-15-methyltetracyclo(8.7.0.0<2,7>0.0<11,15>)heptadeca-2,4,6-trien-5-yloxy)acetate] | 48 to 50 °C
C[C@]12CC[C@@H]3c4ccc(O)cc4/C(=N/OCC(=O)OCCC4(SN=O)C5CC6CC(C5)CC4C6)C[C@H]3[C@@H]1CC[C@@H]2O (stereo partly drawn) [Example 37, 2-(2-(Nitrosothio)adamantan-2-yl)ethyl 2-(((1S,11S,14S,15S,10R)-5,14-dihydroxy-15-methyltetracyclo(8.7.0.0<2,7>0.0<11,15>)heptadeca-2,4,6-trien-8-ylidene)azamethoxy)acetate] | 75 to 80 °C
COc1ccc(C=C2c3ccccc3C(=O)c3ccccc32)cc1OCC(=O)N1CCC(CO[N+](=O)[O-])CC1 [Example 53, 2-(2-Methoxy-5-((10-oxo(9-anthrylidene))methyl)phenoxy)-1-(4-((nitrooxy)methyl)piperidyl)ethan-1-one] | 63 to 65 °C
